Results as given in ChEMBL document CHEMBL1201862, “PubChem BioAssay data set” (2004).
The source made the active and inactive calls.

Columns and labels:
[1] = target: 5-hydroxytryptamine receptor 5A (Homo sapiens, UniProt P47898); test: Counterscreen for agonists of OPRM1-OPRD1 heterodimerization: luminescence-based cell-based high throughput dose response assay to identify agonists of 5-hydroxytryptamine (serotonin) 5A receptor (HTR5A). [Related pubchem assays (depositor defined):AID504326, AID504355, AID504692, AID504904, AID504905]; format: functional
[2] = cytotoxicity toward NIH3T3 fibroblasts, dose response, counter-screen, cell-based, ATP luminescence, mouse fibroblasts (AID 2010); format: functional;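 further: cells exposed to compound for about 90 hours before reading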
INS1 = test: beta cell apoptosis inhibitors, cytokine rescue, dose response, luminescence, retest (AID 449756); format: functional, cell-based; conditions: Rattus norvegicus;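 further: cell death triggered by IL-1 beta plus TNF-alpha plus IFN-gamma mixture; protective hits raise ATP signal compared with cytokine alone wells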
Bcl-2-related protein A1 = target: T1, Bcl-2-related protein A1 (Mus musculus, UniProt Q07440); test: Bfl-1 inhibitors, primary screen, biochemical, fluorescence polarization, FITC-Bid, mouse (AID 432)
T1 sequence (Q07440 whole entry): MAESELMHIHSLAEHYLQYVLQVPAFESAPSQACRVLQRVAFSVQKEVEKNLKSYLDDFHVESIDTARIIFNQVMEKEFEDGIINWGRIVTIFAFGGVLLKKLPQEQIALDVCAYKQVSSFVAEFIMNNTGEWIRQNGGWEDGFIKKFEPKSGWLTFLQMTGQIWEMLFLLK

Phospholipase A2 = Phospholipase A2 (Homo sapiens, UniProt P04054); format: functional;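 further: confirmatory dose-response counterscreen on phospholipase A2, testing hits that came from an ultra-high-throughput screen for ATG4B inhibitors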
Caspase-3 = target: T2, Caspase-3 (Homo sapiens, UniProt P42574); format: functional;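 further: Dose-response selectivity test against caspase-3 for candidate inhibitors of sentrin-specific proteases (SENPs)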
T2 sequence (P42574 whole entry): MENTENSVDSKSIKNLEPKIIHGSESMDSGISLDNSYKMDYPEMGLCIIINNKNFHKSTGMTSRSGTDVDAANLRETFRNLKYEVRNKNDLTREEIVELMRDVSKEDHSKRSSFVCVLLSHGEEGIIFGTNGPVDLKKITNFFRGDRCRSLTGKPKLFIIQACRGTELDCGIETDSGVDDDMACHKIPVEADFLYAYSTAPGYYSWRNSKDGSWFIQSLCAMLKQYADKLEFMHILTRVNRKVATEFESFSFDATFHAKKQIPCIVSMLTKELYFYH

[3] = target: T3, Sentrin-specific protease 8 (Homo sapiens, UniProt Q96LD8); format: functional;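 further: luminescence read-out of SENP8 inhibition, dose-response confirmation following an ultra-high-throughput screen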
T3 sequence (Q96LD8 whole entry): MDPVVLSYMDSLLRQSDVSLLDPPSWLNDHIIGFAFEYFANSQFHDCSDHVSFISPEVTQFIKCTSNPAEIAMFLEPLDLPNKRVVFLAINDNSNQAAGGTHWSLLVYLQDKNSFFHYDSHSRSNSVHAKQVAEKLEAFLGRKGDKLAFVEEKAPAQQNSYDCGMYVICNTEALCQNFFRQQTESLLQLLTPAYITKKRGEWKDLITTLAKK

[4] = target: Ras and Rab interactor 1/Tyrosine-protein kinase ABL1 (Homo sapiens, UniProt P00519+Q13671); format: functional;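 further: biochemical TR-FRET dose-response test measuring inhibition of binding between Rin1 and Abl proteins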
Insulin-degrading enzyme = target: T4, Insulin-degrading enzyme (Homo sapiens, UniProt P14735); test: activators of endogenous IDE in HEK cells, dose response, cell-based, fluorescence polarization (AID 588439); format: functional
T4 sequence (P14735 whole entry): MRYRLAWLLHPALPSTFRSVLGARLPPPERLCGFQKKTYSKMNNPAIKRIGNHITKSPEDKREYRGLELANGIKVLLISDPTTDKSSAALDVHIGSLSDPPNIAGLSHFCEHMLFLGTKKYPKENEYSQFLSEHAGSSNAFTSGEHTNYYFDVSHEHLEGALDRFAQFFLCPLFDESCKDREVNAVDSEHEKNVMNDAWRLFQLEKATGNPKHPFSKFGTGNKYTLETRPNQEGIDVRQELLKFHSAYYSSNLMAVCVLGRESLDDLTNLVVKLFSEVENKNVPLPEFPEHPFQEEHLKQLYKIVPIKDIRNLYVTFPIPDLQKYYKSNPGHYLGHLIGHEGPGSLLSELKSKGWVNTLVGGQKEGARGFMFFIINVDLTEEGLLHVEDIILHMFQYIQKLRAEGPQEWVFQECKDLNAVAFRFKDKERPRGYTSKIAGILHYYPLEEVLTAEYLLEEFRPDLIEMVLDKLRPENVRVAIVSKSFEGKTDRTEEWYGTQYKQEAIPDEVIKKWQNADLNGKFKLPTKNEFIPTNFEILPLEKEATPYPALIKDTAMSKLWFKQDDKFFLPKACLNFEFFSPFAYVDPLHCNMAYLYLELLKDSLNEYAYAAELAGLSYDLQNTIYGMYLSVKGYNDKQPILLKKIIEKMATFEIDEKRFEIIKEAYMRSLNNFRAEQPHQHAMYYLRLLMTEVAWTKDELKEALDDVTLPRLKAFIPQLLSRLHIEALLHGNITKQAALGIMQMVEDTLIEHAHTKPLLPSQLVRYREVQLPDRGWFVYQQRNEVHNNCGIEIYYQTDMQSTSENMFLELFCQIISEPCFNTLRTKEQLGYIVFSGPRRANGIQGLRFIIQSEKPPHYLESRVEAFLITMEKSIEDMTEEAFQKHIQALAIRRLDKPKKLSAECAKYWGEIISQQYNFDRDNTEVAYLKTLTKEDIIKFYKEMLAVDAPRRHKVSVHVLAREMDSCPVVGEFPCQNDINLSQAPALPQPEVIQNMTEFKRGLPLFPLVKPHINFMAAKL

HEK293 = test: HEK cell cytotoxicity by LDH release, dose response, cytotoxicity control for IDE activator project, fluorescence, HEK cells (AID 588440); format: functional, cell-based; conditions: Homo sapiens;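 further: cytotoxicity by LDH release measuring loss of membrane integrity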

Chain of Ras and Rab interactor 1/Tyrosine-protein kinase ABL1 (P00519 whole entry): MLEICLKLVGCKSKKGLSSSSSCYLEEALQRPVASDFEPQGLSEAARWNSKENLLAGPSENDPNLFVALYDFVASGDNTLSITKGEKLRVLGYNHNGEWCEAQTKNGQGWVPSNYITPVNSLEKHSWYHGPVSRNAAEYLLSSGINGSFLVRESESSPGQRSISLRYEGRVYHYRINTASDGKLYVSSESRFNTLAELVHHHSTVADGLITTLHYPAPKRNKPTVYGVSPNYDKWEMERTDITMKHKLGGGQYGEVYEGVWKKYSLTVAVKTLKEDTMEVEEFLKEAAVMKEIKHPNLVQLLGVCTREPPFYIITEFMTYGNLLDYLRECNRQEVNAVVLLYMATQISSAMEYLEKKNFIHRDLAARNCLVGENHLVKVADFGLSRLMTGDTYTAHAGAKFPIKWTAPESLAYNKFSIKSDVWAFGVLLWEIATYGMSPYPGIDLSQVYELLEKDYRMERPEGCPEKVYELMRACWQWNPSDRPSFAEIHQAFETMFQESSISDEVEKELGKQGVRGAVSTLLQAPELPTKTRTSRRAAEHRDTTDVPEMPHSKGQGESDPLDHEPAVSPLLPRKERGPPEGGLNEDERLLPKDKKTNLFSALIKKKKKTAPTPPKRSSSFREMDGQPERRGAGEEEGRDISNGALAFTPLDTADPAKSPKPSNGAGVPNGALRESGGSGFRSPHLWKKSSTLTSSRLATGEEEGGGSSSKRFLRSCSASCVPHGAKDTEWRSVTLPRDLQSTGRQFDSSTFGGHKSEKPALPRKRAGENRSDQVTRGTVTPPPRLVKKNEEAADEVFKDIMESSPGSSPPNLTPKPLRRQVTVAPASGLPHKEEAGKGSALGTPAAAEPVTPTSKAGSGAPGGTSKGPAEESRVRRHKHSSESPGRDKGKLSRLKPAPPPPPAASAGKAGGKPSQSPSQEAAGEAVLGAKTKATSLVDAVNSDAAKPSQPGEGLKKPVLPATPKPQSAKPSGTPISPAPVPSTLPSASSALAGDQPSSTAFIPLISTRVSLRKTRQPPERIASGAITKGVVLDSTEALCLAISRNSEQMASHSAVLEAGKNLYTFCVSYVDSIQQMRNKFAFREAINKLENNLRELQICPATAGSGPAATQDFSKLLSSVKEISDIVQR
Chain of Ras and Rab interactor 1/Tyrosine-protein kinase ABL1 (Q13671 whole entry): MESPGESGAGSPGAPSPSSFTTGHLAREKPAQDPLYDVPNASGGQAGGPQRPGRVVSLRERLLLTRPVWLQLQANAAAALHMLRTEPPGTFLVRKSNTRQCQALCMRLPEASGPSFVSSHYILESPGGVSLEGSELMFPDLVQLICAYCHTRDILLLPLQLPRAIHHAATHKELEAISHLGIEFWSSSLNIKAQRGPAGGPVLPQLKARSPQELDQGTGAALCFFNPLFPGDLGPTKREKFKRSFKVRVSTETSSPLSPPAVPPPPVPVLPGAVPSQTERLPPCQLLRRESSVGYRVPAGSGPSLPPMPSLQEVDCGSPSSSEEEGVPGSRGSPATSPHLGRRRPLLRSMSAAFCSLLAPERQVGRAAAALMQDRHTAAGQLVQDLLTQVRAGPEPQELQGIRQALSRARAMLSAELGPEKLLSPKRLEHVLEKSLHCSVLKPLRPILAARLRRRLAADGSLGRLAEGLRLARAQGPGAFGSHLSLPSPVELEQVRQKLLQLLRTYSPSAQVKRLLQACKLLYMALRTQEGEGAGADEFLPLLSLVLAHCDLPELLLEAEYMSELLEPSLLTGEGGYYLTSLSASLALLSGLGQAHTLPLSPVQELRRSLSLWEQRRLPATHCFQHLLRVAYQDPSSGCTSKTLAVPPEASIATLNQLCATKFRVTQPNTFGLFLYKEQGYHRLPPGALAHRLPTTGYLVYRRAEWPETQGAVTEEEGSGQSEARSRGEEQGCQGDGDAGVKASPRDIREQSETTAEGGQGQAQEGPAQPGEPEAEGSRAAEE
Chain of 5-hydroxytryptamine receptor 5A (P47898 whole entry): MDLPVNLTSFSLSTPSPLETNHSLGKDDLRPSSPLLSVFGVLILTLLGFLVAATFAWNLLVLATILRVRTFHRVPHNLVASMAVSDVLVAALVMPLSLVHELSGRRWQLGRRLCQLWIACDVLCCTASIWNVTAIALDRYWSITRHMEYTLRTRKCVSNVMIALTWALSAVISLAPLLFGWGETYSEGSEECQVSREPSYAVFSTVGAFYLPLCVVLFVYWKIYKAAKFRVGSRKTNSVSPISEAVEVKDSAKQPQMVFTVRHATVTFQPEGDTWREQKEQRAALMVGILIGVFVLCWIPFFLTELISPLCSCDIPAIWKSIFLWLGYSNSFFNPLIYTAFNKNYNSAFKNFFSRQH
Chain of Phospholipase A2 (P04054 whole entry): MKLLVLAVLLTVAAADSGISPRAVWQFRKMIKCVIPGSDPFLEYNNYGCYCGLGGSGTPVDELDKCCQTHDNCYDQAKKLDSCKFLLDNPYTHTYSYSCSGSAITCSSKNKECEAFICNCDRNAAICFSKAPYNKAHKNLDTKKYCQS

With CCCCCCCCCCOC(=O)C[n+]1c(COc2ccccc2C)n(C)c2ccccc21 the EC50 [1] was > 92.5 µM (inactive), the EC50 [2] was > 60 µM (not active) and the AC50 (INS1) was 2.16 µM (active).
With Oc1nc(Nc2ccccc2)cc2ccccc12 the IC50 (Bcl-2-related protein A1) was > 100 µM (not active), the IC50 (Phospholipase A2) was > 80 µM (inactive) and the IC50 (Caspase-3) was 1.02 µM (active). For the same compound, the IC50 [3] was 0.899 µM (active).
For COc1cc(OC)c(-c2c3cc(O)c(=O)cc-3oc3cc(O)c(O)cc23)cc1OC, the IC50 [4] was 0.724 µM (active), the EC50 (Insulin-degrading enzyme) was > 54.7 µM (inactive) and the IC50 (HEK293) was > 89.2 µM (inactive).
